Entries after “also recorded” stand apart in the source; their conditions may differ.
Columns and labels:
Assay type in all cases: cell-based
[1] = test system: TF-1 cells expressing scrambled shRNA; experiment: Cell number after bitopertin treatment, scrambled shRNA TF-1 cells; details: 4 nM or 37 nM bitopertin, 2 days (day 4 to day 6), doxycycline and GMCSF
Protocol: (§1) Prior to treatment with bitopertin, the TF-1/shRNA #a cells were treated with doxycycline for 4 days to induce RPS19 knockdown by shRNA #a. TF-1/scramble shRNA cells were treated similarly as an experimental control. On day 4, both TF-1/shRNA #a and TF-1/scramble shRNA cells were seeded to the 12-well cell culture plates at a density of 1×10^5 cells per well. Bitopertin was added to the cells in 12-well plates for 48 hours of treatment from day 4 to day 6. […] Each of the TF-1 cells were also treated with doxycycline and GMCSF, which induces shRNA expression and stimulates proliferation, for the entirety of the experiment.
(§2) We investigated if blocking the uptake of heme biosynthesis pathway precursor glycine into cells with bitopertin could restore the balance between heme and globin and reverse the anti-proliferative effects caused by RPS19 knockdown. To test this hypothesis, similarly as above, washed cells were seeded in 6-well plates with doxycycline and GMSCSF to induce shRNA expression and cell proliferation for four days. On day 4, 1×10^5 cells were seeded into a 12-well plate with 4 nM or 37 nM bitopertin. After two days of treatment with bitopertin, we enumerated cell numbers.

TF-1 shRNA #a cells = experiment: Cell number after bitopertin treatment, RPS19 knockdown TF-1 cells; details: 4 nM or 37 nM bitopertin, 2 days (day 4 to day 6), doxycycline and GMCSF
Protocol: as §1, §2

TF-1/shRNA #b cells = experiment: CTG cell viability after bitopertin treatment, RPS19 knockdown TF-1 cells; details: varying doses, 1 μM top concentration, 9 points 3-fold dilutions, 2 days, doxycycline and GMCSF
Protocol: The cells were treated with (1) doxycycline during the entire cell culture period to induce shRNA expression; (2) GMCSF during the entire 6 days of cell culture period to induce proliferation. At day 4 of cell culture, the TF-1 cells were seeded to the 96-well cell culture plates at a density of 1×10^4 cells per well, and were treated with varying doses of bitopertin for two days of the culture period, from day 4 to day 6.
Further, in a similar setup, an equal number of cells were seeded on to 96-well plates after four days of doxycycline treatment and incubated with varying doses of bitopertin (1 μM top concentration, 9 points 3-fold dilutions) for two days and on day 6, we performed a CTG assay to measure the cell viability. The cells were cultured in the presence of GMCSF during the entire cell culture period.

TF-1 cells [2] = experiment: Cell growth of TF-1 stable lines by cell counting with trypan blue staining; details: 6 days of culture with doxycycline; for growth inhibition (cell count): EPO; for effect on cell proliferation (cell count) compared to scrambled shRNA: GMCSF (2 ng/ml)
Source text: RPS19 knockdown in TF-1 cells has been previously reported to adversely affect the growth of erythroid cells due to an imbalance in heme and globin synthesis. See, e.g., Yang, Z. et al. Sci Transl Med 8, 338ra67 (2016). The TF-1 cell line is a cell line of immature erythroid origin that requires cytokines such as granulocyte-macrophage colony-stimulating factor (GMCSF) or erythropoietin (EPO) for its growth. The cell growth capability of TF-1 stable lines shRNA #a, shRNA #b, and scrambled shRNA were assessed in vitro by cell counting after 6-days of cell culture in the presence of doxycycline induction. Cells were washed from regular growth media and seeded in equal numbers into media containing either GMCSF (2 ng/ml), a growth factor that induces proliferation of the TF-1 cells, or EPO (Ing/ml), a hormone that induces growth of the TF-1 cells and induces their differentiation along the erythroid lineage. Cell growth was monitored by counting cells with trypan blue staining (FIG. 3A and FIG. 3B).

TF-1 cells [3] = experiment: Cell viability of TF-1 stable lines by CellTiter-Glo (CTG); details: GMCSF and EPO stimulus, doxycycline, 96-well plates
Protocol: Similarly, the cell growth capability of TF-1 stable lines shRNA #a, shRNA #b, and scrambled shRNA was assessed in vitro by cell viability assay. As described above, washed cells were seeded into 96 well plates in equal numbers in media containing either GMCSF or EPO (FIG. 4A and FIG. 4B) on separate plates for each day of readout. Cell viability was measured using the CellTiter-Glo® (CTG), which determines the number of viable cells in culture by quantifying ATP, which indicates the presence of metabolically active cells.

RPS19 protein = RPS19 protein levels by western blot in TF-1 stable cell lines; details: TF-1 stable line, doxycycline-induced shRNA, by day 5
Protocol: To generate an RPS19 deficient Diamond blackfan anemia (DBA) model, a TF-1 erythroid cell line was transduced with lentivirus encoding shRNAs targeting RPS19 (referred to as “shRNA #a” and “shRNA #b”) and a scrambled shRNA control (referred to as “Scramble shRNA” or “Scrambled”) (See Table 1). Stable cell lines were generated by selecting the infected cells with puromycin (1 ug/ml) for three weeks. The shRNA expression is doxycycline inducible. In the stable cell lines, RPS19 mRNA expression was measured using qRT-PCR after two (FIG. 1A) and four (FIG. 1B) days of doxycycline treatment. […] Further, RPS19 protein levels were decreased by more than 70% by shRNA #b by day 5 (FIG. 2A and FIG. 2B). The antibodies used in determining the RPS19 protein levels are described in Table 1.

Row | Compound | effect on cell number of scrambled shRNA cells [1] | effect on cell number of RPS19 knockdown cells (TF-1 shRNA #a cells) | effect on cell viability (CTG) compared to TF-1/scrambled shRNA cells (TF-1/shRNA #b cells) | growth inhibition (cell count) (TF-1 cells [2]) | effect on cell proliferation (cell count) compared to scrambled shRNA (TF-1 cells [2]) | cell growth inhibition (CTG cell viability) compared to scrambled shRNA (TF-1 cells [3]) | decrease of RPS19 protein levels (RPS19 protein)
1 | C[C@H](Oc1ccc(S(C)(=O)=O)cc1C(=O)N1CCN(c2ncc(C(F)(F)F)cc2F)CC1)C(F)(F)F [bitopertin] | did not affect | reverses the anti-proliferative effects; also recorded: protective effect | dose-dependent bitopertin protective effect | – | – | – | –
2 | shRNA #a: lentivirus-encoded, doxycycline-inducible shRNA targeting RPS19, GAGATCTGGACAGAATCGC (SEQ ID NO: 1) | – | – | – | dose-dependent growth inhibition | moderate effect | moderate cell growth inhibitory effects | –
3 | shRNA #b: lentivirus-encoded, doxycycline-inducible shRNA targeting RPS19, GCTTGCTCCCTACGATGAGAA (SEQ ID NO: 2) | – | – | – | dose-dependent growth inhibition | more substantial effect | high degree inhibition in cell growth | more than 70%

— patent US20240325382A1, “COMPOSITIONS AND METHODS FOR TREATING ANEMIA ASSOCIATED WITH A RIBOSOMAL DISORDER” (Disc Medicine, Inc., priority 2021, published 2024)
